As a reminder, the Ki is the equilibrium dissociation constant of an inhibitor or competing ligand from its target. One may read the Emax as the greatest response seen or fitted, relative to the assay's reference. As usually defined, the EC50 is the concentration at which the effect is half-maximal. Low values mean a more potent agent, high ones a less potent agent.

For experiment [1], the target named is T1, Adenosine receptor A1 (Homo sapiens) (UniProt P30542).
T1 sequence (whole entry): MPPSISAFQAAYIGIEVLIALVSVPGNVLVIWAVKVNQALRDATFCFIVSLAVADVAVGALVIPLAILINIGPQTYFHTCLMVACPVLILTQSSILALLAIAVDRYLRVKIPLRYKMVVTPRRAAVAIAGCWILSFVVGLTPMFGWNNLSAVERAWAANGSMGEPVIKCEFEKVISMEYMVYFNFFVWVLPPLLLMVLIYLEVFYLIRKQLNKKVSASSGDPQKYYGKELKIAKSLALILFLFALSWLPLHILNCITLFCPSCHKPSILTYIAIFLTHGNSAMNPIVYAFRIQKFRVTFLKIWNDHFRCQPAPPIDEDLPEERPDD
Description: Percentage extracellular acidification rate was evaluated against human adenosine A1 receptor expressed in CHO-K1 cells. The class given is functional, cell-based.

Experiment [2] deals with T2, Adenosine receptor A1 (Rattus norvegicus, UniProt P25099).
T2 sequence (P25099 whole entry): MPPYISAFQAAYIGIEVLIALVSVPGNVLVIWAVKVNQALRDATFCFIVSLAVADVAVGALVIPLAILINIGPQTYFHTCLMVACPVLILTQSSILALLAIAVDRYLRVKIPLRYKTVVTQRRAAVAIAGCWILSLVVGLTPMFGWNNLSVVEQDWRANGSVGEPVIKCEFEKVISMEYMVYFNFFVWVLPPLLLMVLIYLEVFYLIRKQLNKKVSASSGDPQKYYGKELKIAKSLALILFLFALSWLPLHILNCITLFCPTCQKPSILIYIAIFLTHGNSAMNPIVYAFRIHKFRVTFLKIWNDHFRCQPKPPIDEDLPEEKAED
Description: Binding affinity against adenosine A1 receptor in rat brain using [3H]R-PIA. The class given is tissue-based.

For experiment [3], the target named is T1, Adenosine receptor A1 (Homo sapiens). Briefly: Emax for R-PIA against Human Adenosine A1 receptor.
Experiment [4] concerns the target T3, Adenosine receptor A1 (Homo sapiens, UniProt P30542).
T3 sequence (P30542 whole entry): T1 sequence (whole entry)
Briefly: Binding against Human Adenosine A1 receptor.

Take `OC[C@@H]1OC(n2cnc3c2N=CN2C[C@H](c4ccccc4)N=C32)[C@@H](O)[C@H]1O` (stereo partly drawn): in experiment [1], the ECAR was 106%.
Same read-out and setting: then `OC[C@@H]1OC(n2cnc3c2N=CN2C[C@@H](c4ccccc4)N=C32)[C@@H](O)[C@H]1O` (stereo partly drawn), with 113%.
`NC1=Nc2c(ncn2C2O[C@@H](CO)[C@H](O)[C@@H]2O)C2=N[C@@H](c3ccccc3)CN12` (stereo partly drawn) came in with an ECAR in experiment [1] of 117%. In addition, in experiment [2], the Ki is 610 nM.
Molecule `NC1=Nc2c(ncn2C2O[C@@H](CO)[C@H](O)[C@@H]2O)C2=N[C@H](c3ccccc3)CN12` (stereo partly drawn) came in with an ECAR in experiment [1] of 122%. In experiment [3], this molecule displayed an Emax of 90%. The molecule also displayed an EC50 in experiment [4] of 100000 nM. In addition, the affinity in experiment [2], expressed as Ki, was 1020 nM.

The record behind these values is ChEMBL document CHEMBL1131655 (Bioorg Med Chem Lett, 1998).
